According to US9260417B2, “Therapeutic methods and compositions involving allosteric kinase inhibition” (AMITECH THERAPEUTIC SOLUTIONS, INC., priority 2010, dated 2016):

Assays:
ABL1 = ABL1 (Homo sapiens (Human), UniProt P00519); assay: KINOMEscan competitive binding assay; details: 10 uM
Experimental: (§1) For the competitive binding assay, test compounds were screened at 10 μM against 70 diverse kinase targets for competitive binding using the KINOMEscan™ technology (Ambit Biosciences) (Karaman, et al. (2008) Nature biotechnology 26:127-132). 11-point Kd curves were determined for hits identified during the initial screen.

BRAF = BRAF (Homo sapiens (Human), UniProt P15056); assay: KINOMEscan competitive binding assay; details: 10 uM
Experimental: as §1

CDK8 = CDK8 (Homo sapiens (Human), UniProt P49336); assay: KINOMEscan competitive binding assay; details: 10 uM
CSNK1E = CSNK1E (Homo sapiens (Human), UniProt P49674); assay: KINOMEscan competitive binding assay; details: 10 uM
RAF1 = RAF1 (Homo sapiens (Human), UniProt P04049); assay: KINOMEscan competitive binding assay; details: 10 uM
NCI60 panel = NCI60 panel growth inhibition; format: cell-based; details: average across NCI60 panel; read-out: average growth inhibitory concentration (GI50)
[1] = system: MDA-MB231 human breast carcinoma cells; assay: MDA-MB231 orthotopic breast cancer xenograft; format: in vivo, mice
Experimental: Tumors were generated by injection of MDA-MB231 human breast carcinoma cells (1×10^6 tumor cells in 50 μl of sterile PBS) into the mammary fatpad of 6-8 week old female Nu/Nu mice. Tumors were allowed to grow and the mice were randomized into two groups with an average tumor volume of 100 mm^3. […] Tumor growth was monitored by measuring the tumor length and width with precision calipers every 2 days and calculating tumor volume using the following formula: Tumor volume=0.5*(length)*(width)^2, provided the smaller measurement was utilized as the length. […] Scale bar 20 μM. […] Cells were lysed in RIPA buffer (50 mM Tris pH 7.4, 100 mM NaCl, 0.1% SDS, 1.0% TritonX-100, 1% deoxycholate) supplemented with complete protease inhibitor mixture (Roche), 50 mM NaF, and 1 mM Na3VO4 and centrifuged at 13,000 g for 10 min at 4° C. Protein concentration was determined by BCA assay and 30 μg of protein was loaded per lane of 10% SDS-PAGE gel. Immunohistochemistry in FIG. 18A was performed according to the manufacturer's recommendations (Vector Labs), on […] sections of paraffin-embedded tumors from the orthotopic xenograft breast cancer mouse model (MDA-MB231). For phospho-S338 CRAF immunohistochemistry, antigen retrieval was performed in citrate buffer pH 6.0 at 95° C. for 20 min. […]

## CSc1nc(N)cc(Oc2ccc(-c3nnc(Nc4cccc(C(F)(F)F)c4)[nH]3)cc2)n1 [Compound 6]
ABL1
  % Control: 100%
BRAF
  % Control: 91%
CDK8
  % Control: 67%
CSNK1E
  % Control: 47%
RAF1
  % Control: 52%
NCI60 panel
  GI50: 490 nM
[1]; 50 mg/kg, bid, ip
  breast tumor growth compared to vehicle: suppresses tumor growth
[1]; three consecutive days, tumors resected 1 h after final dose
  phosphorylation of CRAF S338 in breast tumors: clearly inhibits phosphorylation of S338
